Results as given in article PMC11372076, “A dual inhibitor of PIP5K1C and PIKfyve prevents SARS-CoV-2 entry into cells” (Experimental & Molecular Medicine, 2024).

How the values were obtained:
PIKFYVE = PIKFYVE (Homo sapiens, UniProt Q9Y2I7); experiment: Eurofins kinase assay service (Kd); type: binding
Experimental: Supplementary Fig. 2 UNI418 inhibits PIP5K1B/C and PIKfyve. a Inhibition graph of PIP5K1 kinases at the 10 point titration with UNI418. IC 50 value of PIP5K1 kinases was analyzed by Thermo Fisher Scientific’s SelectScreen kinase profiling service. b Kd (nM) values of PIP5K1C and PIKfyve inhibition were determined using the Eurofins kinase assay service.
(1 picture or pasted object on this page, not shown here)

RPE1 cells [1] = experiment: Western blot of autophagy-monitoring proteins SQSTM1/p62 and LC3-II; type: cell-based
From the text: Fig. 2 UNI418 inhibits autophagy. a Western blot analysis of p62, LC3B-I, LC3B-II and GAPDH in the presence of UNC3230, apilimod and UNI418. b Immunofluorescence staining with LC3B (green) and p62 (red) antibodies upon treatment with UNC3230, apilimod and UNI418, and images within the white rectangular boxes are magnified on the right side. Scale bar, 20 µm. c The area of fluorescence intensity from immunofluorescence images (b) was quantified after UNC3230, apilimod and UNI418 treatments. d, e Quantification of autophagic flux under normal conditions and under HBSS-induced starvation conditions with or without UNI418 treatment. RPE1 cells were treated with UNI418 (0.5 µM or 1 µM) for 2 h in the presence or absence of a lysosomal inhibitor (bafilomycin A1, BFA). Representative Western blot images (d) and the graph showing the average of 4 independent experiments (e). The error bars indicate the S.D. Statistical analysis was performed using two-way ANOVA; *p < 0.05, ***p < 0.001.
Supplementary Materials and Methods
The whole cell extracts were prepared by lysis of harvested cells with M -PER Mammalian protein extraction reagent (Thermo Fisher Scientific). The protein concentrations were determined by Bradford protein assay (Bio- Rad). The 10 to 20 μ g of prepared proteins were separated by the SDS-PAGE and transferred to PVDF membrane, which were then blocked in 5% skim milk for 30 minutes at room temperature. […] The images were obtained and quantified by Fusion solo ChemiDoc system (Vilber).
Autophagic flux assay was analyzed essentially as previously described1,2.
Briefly, RPE1 cells were treated with UNI418 (0, 0.5, or 1 µM) for 2 h with/without bafilomycin A1 to inhibit lysosomal degradation under normal growth media or HBSS. […] The LC3- II bands were quantified using Fusion Solo ChemiDoc system (Vilber) and normalized to GAPDH bands.
Autophagy flux was calculated by subsidizing the lysosomal inhibitor-treated cells to non- treatment cells in both normal growth media and HBSS-induced starvation with 0, 0.5, or 1 µM UNI418. […]

RPE1 cells [2] = experiment: PtdIns(4,5)P2 level by flow cytometry; type: cell-based; conditions: overnight
Experimental: CUGAUCAAGAU G A -3 and PIKfyve#2 siRNA 5'-
[…] -3'. siRNA oligonucleotides were purchased from Genolution, Sigma- Aldrich and Integrated DNA Technologies.
These siRNAs were transfected into the cell using lipofectamine RNAiMAX (Invitrogen, 13778150) following manufacturer ’s protocol.
RPE1 cells were treated with UNI418 at indicated concentration for over-night.
After that, the image was taken by EVOS M5000 (Thermo Fisher Scientific).
RPE1 cells were treated with UNI418 at the different concentration during the time. Live cell images were taken by Lionheart LX Automated Microscope and analyzed in Gen5 (Agilent).
RPE1 cells were treated with indicated doses of UNI418 overnight. To analyze PIP2 level by flow cytometry, trypsinized cells were fixed with 4% paraformaldehyde for 10 min at room temperature. […] Cells were washed three times with 1% BSA-PBS and incubated with the fluorescence- conjugated secondary antibody Alexa Fluor® 488 AffiniPure Goat Anti-Mouse IgG (H+L) (Jackson ImmunoResearch,111- 545- 003) for 1h at room temperature analyzed by BD Accuri C6 Plus flow cytometer (BD Biosciences). […]
PtdIns(4,5)P2 level was analyzed by flow cytometry. […] Significance was determined by Student’s t-test, **p < 0.01. b Representative flow cytometry graph for PIP2 level after indicated dose of […]

Sequence of PIKFYVE (Q9Y2I7 whole entry): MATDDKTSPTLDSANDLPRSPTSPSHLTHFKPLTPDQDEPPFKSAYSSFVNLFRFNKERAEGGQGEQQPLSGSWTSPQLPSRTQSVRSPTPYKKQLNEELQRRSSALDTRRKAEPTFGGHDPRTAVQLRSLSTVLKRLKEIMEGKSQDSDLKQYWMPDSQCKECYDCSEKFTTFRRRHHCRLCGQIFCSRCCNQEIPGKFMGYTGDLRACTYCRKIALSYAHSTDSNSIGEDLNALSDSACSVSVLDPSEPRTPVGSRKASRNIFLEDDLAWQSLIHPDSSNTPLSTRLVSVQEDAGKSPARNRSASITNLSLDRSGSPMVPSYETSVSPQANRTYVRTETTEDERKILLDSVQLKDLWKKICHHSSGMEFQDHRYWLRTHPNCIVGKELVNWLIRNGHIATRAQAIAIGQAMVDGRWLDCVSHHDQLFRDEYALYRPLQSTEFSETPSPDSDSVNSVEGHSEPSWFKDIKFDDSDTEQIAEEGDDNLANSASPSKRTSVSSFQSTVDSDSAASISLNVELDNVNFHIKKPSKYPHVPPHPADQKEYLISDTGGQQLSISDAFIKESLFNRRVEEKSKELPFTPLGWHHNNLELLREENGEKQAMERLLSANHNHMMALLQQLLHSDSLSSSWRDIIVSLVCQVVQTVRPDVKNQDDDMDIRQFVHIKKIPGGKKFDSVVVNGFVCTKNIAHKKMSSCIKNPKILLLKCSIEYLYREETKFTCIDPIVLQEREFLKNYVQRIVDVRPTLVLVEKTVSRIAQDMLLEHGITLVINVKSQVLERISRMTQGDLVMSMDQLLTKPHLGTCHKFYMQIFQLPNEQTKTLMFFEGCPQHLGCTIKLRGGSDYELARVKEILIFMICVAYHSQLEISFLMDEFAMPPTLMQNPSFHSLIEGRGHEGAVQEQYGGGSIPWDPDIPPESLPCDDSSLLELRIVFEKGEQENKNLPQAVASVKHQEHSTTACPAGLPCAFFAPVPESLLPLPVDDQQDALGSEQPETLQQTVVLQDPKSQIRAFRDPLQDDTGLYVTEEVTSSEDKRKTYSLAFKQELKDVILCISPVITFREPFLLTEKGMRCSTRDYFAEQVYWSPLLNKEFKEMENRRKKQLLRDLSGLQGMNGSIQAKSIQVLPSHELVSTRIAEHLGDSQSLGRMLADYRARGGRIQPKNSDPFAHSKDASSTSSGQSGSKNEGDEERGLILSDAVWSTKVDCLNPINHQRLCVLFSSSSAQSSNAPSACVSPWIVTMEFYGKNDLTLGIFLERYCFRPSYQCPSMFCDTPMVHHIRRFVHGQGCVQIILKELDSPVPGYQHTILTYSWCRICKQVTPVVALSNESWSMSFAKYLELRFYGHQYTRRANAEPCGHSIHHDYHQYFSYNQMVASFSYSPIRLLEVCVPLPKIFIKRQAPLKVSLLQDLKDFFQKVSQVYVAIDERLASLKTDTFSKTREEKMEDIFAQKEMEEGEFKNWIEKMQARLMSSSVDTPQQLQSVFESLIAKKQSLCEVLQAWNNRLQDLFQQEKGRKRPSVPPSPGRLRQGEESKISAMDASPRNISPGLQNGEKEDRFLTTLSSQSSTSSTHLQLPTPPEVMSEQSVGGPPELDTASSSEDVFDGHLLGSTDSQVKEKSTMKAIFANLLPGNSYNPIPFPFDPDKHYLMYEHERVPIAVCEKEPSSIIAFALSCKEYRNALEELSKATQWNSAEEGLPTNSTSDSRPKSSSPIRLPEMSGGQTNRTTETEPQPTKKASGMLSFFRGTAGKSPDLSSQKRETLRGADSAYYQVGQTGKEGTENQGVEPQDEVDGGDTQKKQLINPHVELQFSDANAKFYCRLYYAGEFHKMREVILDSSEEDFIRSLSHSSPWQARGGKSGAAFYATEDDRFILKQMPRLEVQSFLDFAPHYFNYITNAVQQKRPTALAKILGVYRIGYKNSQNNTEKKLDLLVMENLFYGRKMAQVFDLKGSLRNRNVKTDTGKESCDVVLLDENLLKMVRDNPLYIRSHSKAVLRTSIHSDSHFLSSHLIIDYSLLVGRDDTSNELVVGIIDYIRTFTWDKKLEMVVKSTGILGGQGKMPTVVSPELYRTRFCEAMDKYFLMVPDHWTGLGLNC

Compound | Kd (PIKFYVE) [pM] | accumulation of SQSTM1/p62 and LC3-II (RPE1 cells [1]) | levels of PtdIns(4,5)P2 (RPE1 cells [2])
c1ccc(-c2cc(Nc3nc(-c4ccncc4)nc4ccccc34)n[nH]2)cc1 [UNI418, N -(5-phenyl-1 H -pyrazol-3-yl)-2-(4-pyridinyl)-4-quinazolinamine] | 780 | strongly induced | reduced
Cc1cccc(/C=N/Nc2cc(N3CCOCC3)nc(OCCc3ccccn3)n2)c1 [apilimod] | – | strongly induced | –
